This assay addresses bovine thrombin (Bos taurus, UniProt P00735). Put plainly: biochemical.

From patent US5747535A, “Selective thrombin inhibitors” (priority 1995, dated 1998) come the findings set out here.
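Also: bovine thrombin cleaving the chromogenic substrate Chromozym TH, with para-nitroaniline release tracked as absorbance change over time to give initial rates, in Tris buffer at pH 7.8.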

Excerpt: The thrombin inhibitory effect of the compound of formula (I) according to the present invention can be identified by determination of a dissociation constant Ki represented by the following equation according to the known method described in literature [see, Methods in enzymology V. 80,p341-361;Biochemistry 27,p2144-2151 (1988)].
The dissociation constant Ki denotes the degree of dissociation of the enzyme-thrombin inhibitor complex. […] Such dissociation constant can be determined by reacting thrombin with a certain substrate which develops a color when it is hydrolyzed by the action of thrombin, and then measuring the degree of color development as a function of time by means of spectrophotometry.
Chromozym TH is hydrolyzed by thrombin to produce yellow para-nitroaniline. Accordingly, the amount of yellow para-nitroaniline thus produced can be measured as the change of absorbance in the course of time to determine the thrombin inhibitory activity of the compound according to the present invention. That is, the enzyme activity can be determined from the rate of change in absorbance and then can be directly connected with the ability of the thrombin inhibitor to inhibit the enzyme activity (see, Methods in Enzymology, V. 80,p341-361,Biochemistry 27, p2144-2151, 1988).
The ability of the compound according to the present invention to inhibit the thrombin activity was determined as described in the following.
1160 μl of 0.1M tris buffered solution (pH 7.8) containing 150 mM NaCl and 0.1% PEG 8000 (polyethylene glycol, molecular weight about 8,000) was added to a 1.5 ml cuvette. Chromozym TH was dissolved in dimethylsulfoxide(DMSO) in the concentration of 10mM and the resulting solution was diluted with the said tris buffered solution to the concentration of 0.1 mM, which was then used as the substrate solution. 225 μl of 0.1 mM substrate solution thus prepared was added to the cuvette. The inhibitor solution was prepared by dissolving the thrombin inhibitor compound according to the present invention in dimethylsulfoxide in the concentration of 10 mg/ml and then diluting the resulting solution with the said tris buffered solution to the concentration of 0.1 mg/ml, 0.01 mg/ml, 0.001 mg/ml and 0.0001 mg/ml. The resulting inhibitor solution was taken in an amount corresponding to 0 to 10 μg as the inhibitor and then diluted with tris buffered solution to make the total volume of 100 μl which was added to the cuvette.
15 μl of bovine thrombin solution dissolved in above tris buffered solution in the concentration of 0.1 mg/ml was added to the cuvette to initiate the enzyme hydrolysis reaction. The amount of para-nitroaniline produced for 2 minutes from the moment the enzyme is added was monitored by measuring the absorbance at 381 nm. The continuous spectrum of absorbance to reaction time was depicted. The same experiments were conducted for various concentration of the inhibitor to obtain the continuous spectrum.
In each spectrum, the initial velocity Vi was obtained from the slope within initial 30 seconds of the reaction time and then a graph for the reciprocal value of initial velocity(1/Vi) to the inhibitor concentration was depicted. From the graph, the primary equation satisfying the points depicted thereon was obtained and then the value Ki was calculated from the x intercept of the primary equation using the enzyme reaction equation.
The velocity constant Ks was obtained using the same solution in the same concentration as in determination of the value Ki but using the following experimental procedure.

The Ki is the dissociation constant of the complex between target and ligand, obtained from inhibition or displacement. `COC(=O)[C@@H](C(C)C)N(C)C(=O)[C@H](Cc1ccc(C(=N)NN)cc1)NS(=O)(=O)c1ccc2ccccc2c1` [Example 31, (R)-2-{[3-(4-amidrazono-phenyl)-(S)-2-(naphthalene-2-sulfonylamino)-propionyl]-methyl-amino}-3-methyl-butyric acid methyl ester]: the inhibition constant (Ki) worked out at 165 nM.

The molecule `COC(=O)[C@H](C(C)C)N(C)C(=O)[C@H](Cc1ccc(C(=N)NN)cc1)NS(=O)(=O)c1ccc2ccccc2c1` [Example 47, (S)-2-{[3-(4-amidrazono-phenyl)-(S)-2-(naphthalene-2-sulfonylamino)-propionyl]-methylamino}-3-methyl-butyric acid methyl ester] showed an inhibition constant (Ki) of 665 nM.

As to `CCOc1ccccc1N1CCN(C(=O)[C@H](Cc2ccc(C(=N)NN)cc2)NS(=O)(=O)c2ccc3ccccc3c2)CC1` [Example 58, (S)-naphthalene-2-sulfonic acid [1-(4-amidrazono)benzyl-2-oxo-2-[4-(2-ethoxyphenyl)-piperazinyl]-ethyl]amide], the inhibition constant Ki came to 9130 nM.

Take `N=C(NN)c1ccc(C[C@H](NS(=O)(=O)c2ccc3ccccc3c2)C(=O)N2CCN(c3cccc(C(F)(F)F)c3)CC2)cc1` [Example 55, (S)-naphthalene-2-sulfonic acid [1-(4-amidrazono)-benzyl-2-oxo-2-[-4-(3-trifluoromethyl-phenyl)-piperazinyl]-ethyl]-amide]: affinity was put at a Ki of 10000 nM.

As to `N=C(NN)c1ccc(C[C@H](NS(=O)(=O)c2ccc3ccccc3c2)C(=O)N2CCCC[C@@H]2C(=O)O)cc1` [Example 49, 1-[3-(4-amidrazono-phenyl)-(S)-2-(naphthalene-2-sulfonylamino)-propionyl]-piperidine-(R)-2-carboxylic acid], the inhibitory constant (Ki) worked out at 406 nM.

Molecule `CN(C)C(=O)[C@H](Cc1ccc(C(=N)NN)cc1)NS(=O)(=O)c1ccc2ccccc2c1` [Example 13, (S)-N,N-dimethyl-3-(4-amidrazonophenyl)-2-(2-naphthylsulfonylamino)propionamide] returned a Ki of 216 nM.

`N=C(NN)c1ccc(C[C@H](NS(=O)(=O)c2ccc3ccccc3c2)C(=O)N2CCN(c3ccccc3)CC2)cc1` [Example 54, (S)-naphthalene-2-sulfonic acid [1-(4-amidrazono)benzyl-2-oxo-2-(4-phenyl-piperazinyl)-ethyl]amide] registered an inhibitory constant (Ki) of 5380 nM.

For the molecule `N=C(NN)c1ccc(C[C@H](NS(=O)(=O)c2ccc3ccccc3c2)C(=O)N2CCN(CCO)CC2)cc1` [Example 57, (S)-naphthalene-2-sulfonic acid [1-(4-amidrazono)benzyl-2-oxo-2-[4-(2-hydroxyethyl)-piperazinyl]-ethyl]amide], the Ki came to 88 nM.

Regarding `CN(C(=O)[C@H](Cc1ccc(C(=N)NN)cc1)NS(=O)(=O)c1cccc2ccccc12)C1CCCC1` [Example 22, (S)-3-[4-(amidrazono)-phenyl]-N-cyclopentyl-N-methyl-2-(naphthalene-1-sulfonylamino)-propionamide], affinity was put at a Ki of 17 nM.

As to `COC(=O)CCCN(C)C(=O)[C@H](Cc1ccc(C(=N)NN)cc1)NS(=O)(=O)c1ccc2ccccc2c1` [Example 35, 4-{[3-(4-amidrazono-phenyl)-(S)-2-(naphthalene-2-sulfonylamino)-propionyl]-methyl-amino}-butyric acid methyl ester], the inhibitory constant (Ki) was determined as 612 nM.

`CN(C(=O)[C@H](Cc1ccc(C(=N)NN)cc1)NC(=O)COc1ccc2ccccc2c1)C1CCCC1` [Example 24, (S)-3-[4-(amidrazono)-phenyl]-N-cyclopentyl-N-methyl-2-[2-(naphthalene-2-yl-oxy)acetylamino]-propionamide] showed a Ki of 20100 nM.

`CN(C(=O)[C@H](Cc1ccc(C(=N)NN)cc1)NS(=O)(=O)c1ccc2ccccc2c1)C1CCCC1C(=O)O` (stereo partly drawn) [Example 46, 2-{[3-(4-amidrazono-phenyl)-(S)-2-(naphthalene-2-sulfonylamino)-propionyl]-methylamino}-cyclopentane carboxylic acid] came in with a Ki of 880 nM.

In turn, `COC(=O)[C@H]1CCCCN1C(=O)[C@H](Cc1ccc(C(=N)NN)cc1)NS(=O)(=O)c1ccc2ccccc2c1` [Example 48, 1-[3-(4-amidrazono-phenyl)-(S)-2-(naphthalene-2-sulfonylamino)-propionyl]-piperidine-(R)-2-carboxylic acid methyl ester] had an inhibitory constant (Ki) of 13 nM.

The molecule `CN(C(=O)[C@H](Cc1ccc(C(=N)NN)cc1)NC(=O)Cc1cccc2ccccc12)C1CCCC1` [Example 17, (S)-3-[4-(amidrazono)-phenyl]-N-cyclopentyl-N-methyl-2-(2-naphthalen-1-yl-acetylamino)-propionamide] yielded a Ki of 16 nM.

`CCN1CCN(C(=O)[C@H](Cc2ccc(C(=N)NN)cc2)NS(=O)(=O)c2ccc3ccccc3c2)CC1` [Example 53, (S)-naphthalene-2-sulfonic acid [1-(4-amidrazono)benzyl-2-(4-ethyl-piperazinyl)-2-oxoethyl]amide]: the inhibition constant Ki came out at 530 nM.

Consider `COC(=O)CN(C)C(=O)[C@H](Cc1ccc(C(=N)NN)cc1)NS(=O)(=O)c1ccc2ccccc2c1` [Example 25, {[3-(4-amidrazono-phenyl)-(S)-2-(naphthalene-2-sulfonylamino)-propionyl]-methyl-amino}-acetic acid methyl ester], for which the affinity corresponds to a Ki of 259 nM.

`COC(=O)[C@@H](C)N(C)C(=O)[C@H](Cc1ccc(C(=N)NN)cc1)NS(=O)(=O)c1ccc2ccccc2c1` [Example 29, (R)-2-{[3-(4-amidrazono-phenyl)-(S)-2-(naphthalene-2-sulfonylamino)-propionyl]-methyl-amino}-propionic acid methyl ester]: the affinity, expressed as Ki, was 89 nM.

Molecule `CCCCN(CC(=O)OC)C(=O)[C@H](Cc1ccc(C(=N)NN)cc1)NS(=O)(=O)c1ccc2ccccc2c1` [Example 39, {[3-(4-amidrazono-phenyl)-(S)-2-(naphthalene-2-sulfonylamino)-propionyl]-butylamino}-acetic acid methyl ester] came in with a Ki of 165 nM.

For `COc1cc(C)c(S(=O)(=O)N[C@@H](Cc2ccc(C(=N)NN)cc2)C(=O)N(C)C2CCCC2)c(C)c1C` [Example 9, (S)-N-cyclopentyl-N-methyl-3-(4-amidrazonophenyl)-2-[(4-methoxy-2,3,6-trimethylbenzene)sulfonylamino]propionamide], the affinity, expressed as Ki, was 227 nM.

On to `CCOC(=O)N1CCN(C(=O)[C@H](Cc2ccc(C(=N)NN)cc2)NS(=O)(=O)c2ccc3ccccc3c2)CC1` [Example 51, (S)-naphthalene-2-sulfonic acid [1-(4-amidrazono)benzyl-2-oxo-2-(4-ethoxycarbonyl-piperazinyl)-ethyl]amide], for which the affinity corresponds to a Ki of 3300 nM.

Molecule `N=C(NN)c1ccc(C[C@H](NS(=O)(=O)c2ccc3ccccc3c2)C(=O)N2CCN(C=O)CC2)cc1` [Example 52, (S)-naphthalene-2-sulfonic acid [1-(4-amidrazono)benzyl-2-(4-formyl-piperazinyl)-2-oxoethyl]amide] gave a Ki of 50 nM.

Turning to `COC(=O)[C@H](C)N(C)C(=O)[C@H](Cc1ccc(C(=N)NN)cc1)NS(=O)(=O)c1ccc2ccccc2c1` [Example 27, (S)-2-{[3-(4-amidrazono-phenyl)-(S)-2-(naphthalene-2-sulfonylamino)-propionyl]-methyl-amino}propionic acid methyl ester], affinity was put at a Ki of 65 nM.
